From patent publication US12105023B2, “Multi-well plate readers and methods of their use” (QUELLTX, INC., priority 2021, dated 2024)
Where two headings read alike, the source gives them in different places.

Experiments:
Assay type in all cases: cell-based
[1] = target: T1, Nav1.7 (Homo sapiens, UniProt Q15858); assay: Nav1.7 spiking HEK assay
T1 construct: expressed in transfected cells; host or cells: HEK cells co-expressing CheRiff, Kir2.1 (lentiviral transduction) and a voltage reporter

[2] = target: T2, Nav1.8 (Homo sapiens, UniProt Q9Y5Y9); assay: Nav1.8 spiking HEK assay (optogenetic, 6-test pulse stimulation protocol)
T2 construct: expressed in transfected cells; host or cells: HEK cells co-expressing CheRiff-GFP and Kir2.1, with BeRST dye as the voltage sensor

[3] = test system: IPSC-derived cardiomyocyte; assay: Simultaneous voltage and calcium imaging in IPSC-derived cardiomyocytes; settings: 10-test pulse blue stimulation protocol, 3 wells of each concentration, FIG. 41
Source text: A 24 objective plate reader of the invention was used to assay a 96-well plate that contained IPSC-derived cardiomyocyte expressing jRGECO1a calcium sensors, CheRiff actuators, and loaded with BeRST1 fluorescent voltage sensitive dye.
The line labeled “stim” indicates pulses of stimulating light transmitted by the plate reader to multiple wells of the 96-well plate, which caused actuation of CheRiff. This led to resulting changes in voltage and calcium ion concentrations in the cells. The resulting changes in voltage were reported by BeRST1, which was energized by red light transmitted from the plate reader. Calcium ion concentration was reported by jRGECO1, which was energized by yellow light. Thus, the plate reader was able to accurately stimulate an actuator and two reporters in multiple wells of a multi-well plate with three separate wavelengths of light. Moreover, the plate reader was able to simultaneously detect the levels of two separate emission wavelengths of light.
The voltage and calcium fluorescence waveforms in FIG. 40 show the average epoch of the 10-test pulse blue stimulation protocol.
Increasing concentration of Nifedipine altered both the voltage action potential waveform and calcium transients until it was completely extinguished at 0.3 uM.

T2 sequence (Q9Y5Y9 whole entry): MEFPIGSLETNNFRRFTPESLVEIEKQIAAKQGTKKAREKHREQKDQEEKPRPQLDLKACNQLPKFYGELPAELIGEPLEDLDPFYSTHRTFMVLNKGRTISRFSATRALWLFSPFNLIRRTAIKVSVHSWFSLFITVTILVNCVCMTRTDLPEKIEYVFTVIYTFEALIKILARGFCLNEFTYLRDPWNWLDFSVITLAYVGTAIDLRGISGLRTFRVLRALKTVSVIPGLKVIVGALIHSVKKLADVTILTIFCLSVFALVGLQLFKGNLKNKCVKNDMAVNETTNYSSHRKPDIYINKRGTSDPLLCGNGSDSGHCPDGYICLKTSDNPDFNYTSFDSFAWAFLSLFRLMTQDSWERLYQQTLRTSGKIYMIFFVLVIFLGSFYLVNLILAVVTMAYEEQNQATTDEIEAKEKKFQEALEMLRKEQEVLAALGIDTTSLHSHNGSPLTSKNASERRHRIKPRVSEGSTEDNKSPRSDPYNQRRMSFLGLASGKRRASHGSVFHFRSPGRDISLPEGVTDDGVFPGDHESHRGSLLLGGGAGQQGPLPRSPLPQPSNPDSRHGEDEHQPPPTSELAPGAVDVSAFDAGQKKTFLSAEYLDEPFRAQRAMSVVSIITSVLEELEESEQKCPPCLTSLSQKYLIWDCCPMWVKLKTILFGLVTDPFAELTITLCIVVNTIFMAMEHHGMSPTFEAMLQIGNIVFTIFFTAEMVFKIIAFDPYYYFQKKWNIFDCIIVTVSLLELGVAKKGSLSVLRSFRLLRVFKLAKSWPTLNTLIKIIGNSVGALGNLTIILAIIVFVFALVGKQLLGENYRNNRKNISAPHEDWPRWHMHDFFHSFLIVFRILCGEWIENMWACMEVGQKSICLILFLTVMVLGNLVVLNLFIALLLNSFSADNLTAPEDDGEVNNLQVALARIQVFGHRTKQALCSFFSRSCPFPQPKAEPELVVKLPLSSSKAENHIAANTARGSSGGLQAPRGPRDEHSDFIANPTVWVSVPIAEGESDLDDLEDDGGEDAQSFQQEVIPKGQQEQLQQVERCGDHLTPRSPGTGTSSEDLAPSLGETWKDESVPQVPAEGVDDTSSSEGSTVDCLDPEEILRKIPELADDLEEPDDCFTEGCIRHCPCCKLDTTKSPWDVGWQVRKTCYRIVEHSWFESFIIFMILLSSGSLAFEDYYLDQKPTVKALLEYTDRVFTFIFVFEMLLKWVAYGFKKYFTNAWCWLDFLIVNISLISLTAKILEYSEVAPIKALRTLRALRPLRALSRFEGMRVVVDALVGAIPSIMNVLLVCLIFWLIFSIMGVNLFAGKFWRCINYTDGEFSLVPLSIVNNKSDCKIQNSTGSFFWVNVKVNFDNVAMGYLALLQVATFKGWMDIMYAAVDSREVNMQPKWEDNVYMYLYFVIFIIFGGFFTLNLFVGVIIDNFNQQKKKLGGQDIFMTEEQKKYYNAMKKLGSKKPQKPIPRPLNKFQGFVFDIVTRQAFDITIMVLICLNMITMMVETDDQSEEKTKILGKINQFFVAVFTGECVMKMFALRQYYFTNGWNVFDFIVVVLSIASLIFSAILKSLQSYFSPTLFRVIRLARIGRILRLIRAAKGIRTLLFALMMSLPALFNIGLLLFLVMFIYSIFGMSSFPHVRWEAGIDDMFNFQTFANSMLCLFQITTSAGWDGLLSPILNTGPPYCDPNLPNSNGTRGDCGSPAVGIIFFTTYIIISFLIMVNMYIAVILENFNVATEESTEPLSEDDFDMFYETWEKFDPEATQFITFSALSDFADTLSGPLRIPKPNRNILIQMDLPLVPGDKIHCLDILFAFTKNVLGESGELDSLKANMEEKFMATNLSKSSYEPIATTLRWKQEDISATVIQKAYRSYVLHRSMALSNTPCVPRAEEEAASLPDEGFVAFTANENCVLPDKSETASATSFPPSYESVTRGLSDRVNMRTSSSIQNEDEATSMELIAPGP
T1 sequence (Q15858 whole entry): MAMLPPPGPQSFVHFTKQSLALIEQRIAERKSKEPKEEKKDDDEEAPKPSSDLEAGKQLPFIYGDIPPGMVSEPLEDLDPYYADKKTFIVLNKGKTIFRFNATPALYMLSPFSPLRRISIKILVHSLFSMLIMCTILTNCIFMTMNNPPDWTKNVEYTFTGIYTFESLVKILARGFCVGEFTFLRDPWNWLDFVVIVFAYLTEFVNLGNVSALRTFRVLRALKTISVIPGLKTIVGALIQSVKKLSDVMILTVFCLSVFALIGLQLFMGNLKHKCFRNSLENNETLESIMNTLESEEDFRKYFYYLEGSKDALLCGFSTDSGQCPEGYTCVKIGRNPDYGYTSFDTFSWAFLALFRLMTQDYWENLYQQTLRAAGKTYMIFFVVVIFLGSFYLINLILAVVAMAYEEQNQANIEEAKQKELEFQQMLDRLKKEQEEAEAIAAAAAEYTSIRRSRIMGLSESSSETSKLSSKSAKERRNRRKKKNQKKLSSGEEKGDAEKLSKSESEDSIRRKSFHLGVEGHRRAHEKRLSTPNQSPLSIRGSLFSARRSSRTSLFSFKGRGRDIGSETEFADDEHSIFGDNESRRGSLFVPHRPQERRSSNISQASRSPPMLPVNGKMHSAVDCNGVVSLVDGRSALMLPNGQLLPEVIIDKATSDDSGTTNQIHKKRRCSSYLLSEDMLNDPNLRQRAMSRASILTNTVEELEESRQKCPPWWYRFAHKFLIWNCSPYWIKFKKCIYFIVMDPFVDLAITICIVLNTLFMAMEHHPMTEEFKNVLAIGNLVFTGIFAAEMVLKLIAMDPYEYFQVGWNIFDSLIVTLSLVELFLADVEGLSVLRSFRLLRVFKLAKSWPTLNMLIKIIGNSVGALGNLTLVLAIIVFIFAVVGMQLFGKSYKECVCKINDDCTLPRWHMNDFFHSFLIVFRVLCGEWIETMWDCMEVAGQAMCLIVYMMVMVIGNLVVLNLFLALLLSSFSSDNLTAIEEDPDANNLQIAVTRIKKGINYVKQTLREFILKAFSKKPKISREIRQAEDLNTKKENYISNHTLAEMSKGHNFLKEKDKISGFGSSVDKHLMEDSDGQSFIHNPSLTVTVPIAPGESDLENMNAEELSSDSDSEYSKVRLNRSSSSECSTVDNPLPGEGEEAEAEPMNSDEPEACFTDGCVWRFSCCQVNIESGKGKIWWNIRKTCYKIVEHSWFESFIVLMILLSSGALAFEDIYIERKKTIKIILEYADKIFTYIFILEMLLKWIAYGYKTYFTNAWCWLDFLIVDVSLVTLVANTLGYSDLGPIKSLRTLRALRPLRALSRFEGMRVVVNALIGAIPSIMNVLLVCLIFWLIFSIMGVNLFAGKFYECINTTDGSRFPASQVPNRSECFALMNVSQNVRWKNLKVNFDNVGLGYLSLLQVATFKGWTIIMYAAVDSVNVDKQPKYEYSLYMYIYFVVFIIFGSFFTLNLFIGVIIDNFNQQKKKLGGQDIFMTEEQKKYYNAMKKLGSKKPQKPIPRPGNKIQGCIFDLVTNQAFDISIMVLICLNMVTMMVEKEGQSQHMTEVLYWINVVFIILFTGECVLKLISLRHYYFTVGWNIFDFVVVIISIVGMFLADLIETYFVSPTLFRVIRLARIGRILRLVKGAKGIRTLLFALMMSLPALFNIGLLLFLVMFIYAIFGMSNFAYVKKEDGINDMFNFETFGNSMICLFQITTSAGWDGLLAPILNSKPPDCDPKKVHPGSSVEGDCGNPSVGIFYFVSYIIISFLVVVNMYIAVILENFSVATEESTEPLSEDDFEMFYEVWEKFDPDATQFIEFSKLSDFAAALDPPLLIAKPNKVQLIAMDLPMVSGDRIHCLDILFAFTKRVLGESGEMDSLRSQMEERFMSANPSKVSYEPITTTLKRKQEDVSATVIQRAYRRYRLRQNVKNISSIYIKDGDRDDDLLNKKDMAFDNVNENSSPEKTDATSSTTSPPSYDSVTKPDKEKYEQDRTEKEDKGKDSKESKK

Structure (SMILES): NC1=N[C@H](O)[C@H]2[C@H]3O[C@]4(O)O[C@@H]([C@@H](O)[C@@]2(N1)[C@@H]4O)[C@]3(O)CO [TTX, Tetrodotoxin]
- selectivity for Nav1.7 [1]: more than 1,000 fold
- test pulse preference of block (TP1 versus TP5) [2]: equivalently blocks TP1 and TP5

Structure (SMILES): CNC(=O)c1ccc(-c2cc(Cl)cc(Cl)c2Cl)c(N)n1 [PF-01247324]
- IC50 ([2]; Nav1.8 spiking HEK assay, dose response curves, FIG. 43D, read-out: IC50, block of Nav1.8): 130 nM
- selectivity against Nav1.7 ([2]; Nav1.8 versus Nav1.7 spiking HEK assays, FIG. 43D): 40 fold
- test pulse preference of block (TP1 versus TP5) ([2]; dose response curves at TP5 and TP1, FIG. 43C): preferentially blocks TP5
- test pulse at which blocker is more effective (slope of repolarization) ([2]; representative traces, 6-test pulse protocol, FIG. 43B): more effective after the long pulse (TP5)

Structure (SMILES): COC(=O)C1=C(C)NC(C)=C(C(=O)OC)C1c1ccccc1[N+](=O)[O-] [Nifedipine]
- concentration at which voltage action potential waveform and calcium transients were completely extinguished [3]: 0.3 µM
